Read-outs that look alike come from different tables or passages of the source.
Assays:
[1] = Ligand basicity measured by pKa; assay type: physicochemical; conditions: est = estimated value
Method: Basicity (electronic effect) measures the reactivity of a ligand towards a proton. Ligands with lower attraction to binding a proton are less basic, and therefore, generally of lower nucleophilicity. […] Generally, basicity is measured by pKa, known to those of skill in the art, as described in Organometallics, (1989) 8(1), 1, and by Wm. A. Henderson, Jr. and C. A. Streuli, Journal of the American Chemical Society, (1960), 82, 5791-5794, and by Tim Allman, et al., Canadian Journal of Chemistry (1982), 60(6), 716-722, all references incorporated herein by reference. Ligands having a pKa typically of less than about 8.3 provide for reduced formation of phosphonium ion ligand degradation products.

[2] = Batch hydrocarbonylation of 1,3-butadiene; phosphonium salts followed by 31P-NMR and ligand usage (Examples 1-3); assay type: physicochemical
Method: A batch hydrocarbonylation of 1,3-butadiene (BD) to pentenols was conducted at the following conditions: 70° C., 300 psig (2,068 kPa) carbon monoxide, 600 psig (4,136 kPa) hydrogen, 1570 ppm Rh, 4.6 mol ligand/mol Rh, and 40 wt % initial BD in 1-butanol solvent. Trioctylphosphine was used as ligand, and the Rh source was Rh4(CO)12. Multiple samples were taken from the reactor and analyzed by phosphorus-31 nuclear magnetic resonance spectroscopy (^31P-NMR) to follow the concentration of phosphonium ion ligand degradation products (phosphonium salts) with time. The concentration of phosphonium salts increased between t=0 and t=60 min, and their concentration reached a maximum of 0.008 mol/L at t=60 min. […] The concentration of 2-pentenal (α,β-unsaturated aldehyde) also reached a maximum at 60 min.
The BD conversion at the time when the concentrations of phosphonium salts and α,β-unsaturated aldehyde were at their maximum was 39%. Had the reaction been stopped at 39% conversion of BD, the ligand usage (lost) to phosphonium salts would have been 65 g/L/day. However, the reaction was continued until 480 minutes to allow for the 2-pentenal to react away under normal reaction conditions. […] The BD conversion at t=480 min was 98%. When the reaction was stopped at 98% BD conversion, the ligand usage (lost) to phosphonium salts was less than 1 g/L/day.
A batch hydrocarbonylation of 1,3-butadiene (BD) was conducted to partial conversion followed by stripping of the reaction product solution with hydrogen to hydrogenate residual α,β-unsaturated aldehyde (2-pentenal). The batch hydrocarbonylation was conducted at the following conditions: 70° C., 300 psig (2,068 kPa) carbon monoxide, 600 psig (4,136 kPa) hydrogen, 1590 ppm Rh, 4.5 mol ligand/mol Rh, and 40 wt % initial BD in 1-butanol solvent. The ligand used was trioctylphosphine, and the Rh source was Rh4(CO)12. The reaction was conducted for 130 minutes and reached 67% conversion BD. At that time, the concentration of phosphonium salts and α,β-unsaturated aldehyde (2-pentenal) were both about 0.006 mol/L. If no attempt had been made to revert the phosphonium salts at this point, the ligand usage (lost) to phosphonium salts would have been 25 g/L/day. The reactor was vented down to atmospheric pressure to remove most of the syn-gas (CO+H2). The reactor was then re-pressurized back to 900 psig (6,205 kPa) with pure hydrogen. […] Hydrogen was continuously sparged through the reactor at a rate of 0.5 standard cubic feet per hour (SCFH) during the time when the reactor was at 120° C. and 900 psig (6,205 kPa). After 10 minutes of stripping with hydrogen, all phosphonium salts were undetectable by ^31P-NMR, and the α,β-unsaturated aldehyde was undetectable by gas chromatography. The concentration of both of these species remained at essentially “0” for the remainder of the experiment. The ligand usage (loss to phosphonium salts) was reduced from 25 g/L/day to less than 1 g/L/day by reverting the phosphonium salts by hydrogenating the residual α,β-unsaturated aldehyde with hydrogen.
A batch hydrocarbonylation of 1,3-butadiene (BD) was conducted to partial conversion followed by stripping of the reaction product solution with nitrogen to remove residual α,β-unsaturated aldehyde (2-pentenal) by volatilization at […]. The batch hydrocarbonylation was conducted at the following conditions: 70° C., 300 psig (2,068 kPa) carbon monoxide, 600 psig (4,136 kPa) hydrogen, 1590 ppm Rh, 4.6 mol ligand/mol Rh, and 40 wt % initial BD in 1-butanol solvent. The ligand used was trioctylphosphine, and the Rh source was Rh4(CO)12. The reaction was conducted for 120 minutes and reached 72% conversion of BD. At that time, the concentration of phosphonium salts and α,β-unsaturated aldehyde were about 0.005 and 0.016 mol/L, respectively. If no attempt had been made to revert the phosphonium salts at this point, the ligand usage (lost) to phosphonium salts would have been about 20 g/L/day. […]

[3] = Hydrocarbonylation of 2-pentenal with different ligands; ligand converted to phosphonium ion ligand degradation product by 31P-NMR (Example 4); assay type: physicochemical; conditions: ligand converted to phosphonium ion degradation product as percentage of total ligand; 3 hours, 70° C., 300 psig CO, 600 psig H2, 1570 ppm Rh, 4.6 mol ligand/mol Rh, 2-pentenal in 1-butanol
Method: In a series of hydroformylation reactions (4A-D) 2-pentenal (50 mmols) was subjected to hydrocarbonylation conditions for 3 hours using a rhodium catalyst promoted with a variety of ligands having different cone angles and pKa's. Hydrocarbonylation conditions included: 70° C., 300 psig (2,068 kPa) carbon monoxide, 600 psig (4,136 kPa) hydrogen, 1570 ppm Rh, 4.6 mol ligand/mol Rh, and 40 wt % initial 2-pentenal in 1-butanol solvent. The source of Rh was Rh4(CO)12. During the course of the reaction 2-pentenal was hydrogenated to valeraldehyde and then to pentanol. After the reaction was completed, the reaction fluid was examined by P^31-NMR spectroscopy to determine the amount of ligand converted to phosphonium ion ligand degradation product, as a percentage of the total ligand in solution.

[4] = cited from earlier work

pKa [1] | ligand usage (lost) to phosphonium salts ([2]; Example 1, had the reaction been stopped at 39% conversion of BD) [g/L/day] | concentration of phosphonium salts ([2]; Example 1, maximum at t=60 min, 39% BD conversion, 70° C.) [mol/L] | ligand usage (lost) to phosphonium salts ([2]; Example 1, reaction stopped at 98% BD conversion) | concentration of phosphonium salts ([2]; Example 1, t=480 min, 98% BD conversion) [mol/L] | ligand usage (lost) to phosphonium salts ([2]; Example 2, 67% conversion BD, if no attempt made to revert) [g/L/day] | concentration of phosphonium salts ([2]; Example 2, 130 minutes, 67% conversion BD, before reversion) | phosphonium salts by 31P-NMR ([2]; Example 2, after 10 minutes of stripping with hydrogen, 120° C., 900 psig) | ligand usage (loss to phosphonium salts) ([2]; Example 2, after reversion with hydrogen) | ligand usage (lost) to phosphonium salts ([2]; Example 3, 72% conversion of BD, if no attempt made to revert) | concentration of phosphonium salts ([2]; Example 3, 120 minutes, 72% conversion of BD, before reversion) | concentration of phosphonium salts ([2]; Example 3, after 20 minutes of stripping with nitrogen, 120° C., 900 psig) [mol/L] | ligand usage (loss to phosphonium salts) ([2]; Example 3, after stripping with nitrogen) [g/L/day] | % Phosphonium Salt (by wt.) [3] [%] | Compound | PKa [4] | PKa ([4]; listed as tri-isobutylphosphine)
≥ 8.3 | 65 | 0.008 | less than 1 g/L/day | 0.0005 | 25 | about 0.006 mol/L | undetectable | less than 1 g/L/day | about 20 g/L/day | about 0.005 mol/L | 0.0005 | 2 | – | CCCCCCCCP(CCCCCCCC)CCCCCCCC [tri-n-octylphosphine] | – | –
– | – | – | – | – | – | – | – | – | – | – | – | – | 0.3 | CC(C)CP(CC(C)C)CC(C)C [Tri-isobutylphosphine] | 7.97 | less than 8.3
~8.9 | – | – | – | – | – | – | – | – | – | – | – | – | 9.8 | CCCCP(CCCC)C1CCCCC1 [Cyclohexyldi-n-butylphosphine] | – | –

From patent US7485759B2, “Minimization of ligand degradation products, or reversion of same to useful phosphine ligands” (Dow Technology Investments LLC, priority 2003, dated 2009)
